According to PubChem BioAssay (NCI):
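Exposure lasted 48 hours, with cells grown in 96-well plates and compounds tested at five concentrations. GI50: concentration for 50% inhibition of growth. At the TGI there is no net growth.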

Key:
Assay in all cases: NCI anticancer screen, dose series, 48 h
HS 578T breast = tested on: HS 578T breast
K-562 leukemia = tested on: K-562 leukemia
NCI-H226 lung = tested on: NCI-H226 lung
OVCAR-5 ovarian = tested on: OVCAR-5 ovarian
SK-MEL-2 melanoma = tested on: SK-MEL-2 melanoma
UO-31 renal = tested on: UO-31 renal
EKVX NSCLC = tested on: EKVX NSCLC

| Structure (SMILES) | GI50 (HS 578T breast) [µM] | TGI (HS 578T breast) [µM] | GI50 (K-562 leukemia) [µM] | TGI (K-562 leukemia) [µM] | GI50 (NCI-H226 lung) [µM] | TGI (NCI-H226 lung) [µM] | GI50 (OVCAR-5 ovarian) [µM] | TGI (OVCAR-5 ovarian) [µM] | GI50 (SK-MEL-2 melanoma) [µM] | TGI (SK-MEL-2 melanoma) [µM] | GI50 (UO-31 renal) [µM] | TGI (UO-31 renal) [µM] | GI50 (EKVX NSCLC) [µM] | TGI (EKVX NSCLC) [µM] |
| --- | --- | --- | --- | --- | --- | --- | --- | --- | --- | --- | --- | --- | --- | --- |
| COc1ccc(O)c(C(=O)c2ccc(C(=O)O[C@@H]3CCCNC[C@H]3NC(=O)c3ccncc3)cc2)c1F | 0.174 | > 25 | 0.723 | > 25 | 1.68 | > 25 | > 19.3 | > 25 | 0.89 | 16.6 | 0.375 | > 14 | – | – |
| Brc1ccc([I+]c2ccc(Br)cc2)cc1 | 2.96 | 19.9 | – | – | 2.93 | 15.3 | 2.58 | 7.9 | 1.36 | 3.09 | 5.96 | 26.1 | 1.02 | 3.04 |
| COc1cc(OC)c2c(=O)c(O)c(-c3ccc(OC)c(OC)c3)oc2c1 | – | 70.9 | – | > 100 | – | > 100 | – | > 100 | – | – | – | > 100 | – | > 100 |
| CO[C@@H]1[C@@H](OC2OC(C)C(OC3CC(C)(O)C(OC(=O)CC(C)C)C(C)O3)C(N(C)C)C2O)[C@@H](CC=O)C[C@@H](C)C(=O)/C=C/C2O[C@H]2C[C@@H](C)OC(=O)C[C@H]1OC(C)=O (stereo partly drawn) | – | > 100 | – | 39.8 | – | 33.5 | – | 31.8 | – | 43.7 | – | 73.6 | – | > 100 |
| O=C(Nc1ccc(Br)cc1)Nc1n[nH]c2ccccc12 | 46.8 | > 100 | 59.1 | > 100 | > 91 | > 100 | > 100 | > 100 | > 100 | > 100 | 25.8 | > 100 | > 100 | > 100 |
| CCCCCCCCCCCCCCCC(=O)OCC(O)C1OC(=O)C(O)=C1O (stereo not drawn) | – | – | – | 77.7 | – | 47.1 | – | 95.4 | – | > 100 | – | 59.9 | – | > 100 |
| CCOc1ccccc1/C=C1\NC(=O)N(/C=C2\C(=O)Oc3ccccc3C2=O)C1=O | – | > 100 | – | – | – | > 100 | – | > 100 | – | > 100 | – | 75 | – | > 100 |
| COc1cc(CSc2nc3ccc(C)cc3c(=O)n2Cc2ccccc2)cc(OC)c1OC | 2.57 | 48.8 | 0.624 | > 100 | 11.5 | 96.1 | 4.82 | > 100 | 4.05 | 43.1 | 3.05 | > 100 | – | – |
| CN1C(=O)CNC(=O)[C@H](NC(=O)c2nc3ccccc3cc2O)CSSC[C@H]1C(=O)NCCc1nc2ccccc2cc1O | 21.5 | 67 | 1.57 | 13.9 | 17.3 | 65.2 | 24.9 | 62.1 | 2.57 | 8.47 | 13.7 | 46.1 | 11 | > 61.4 |
| CC(=O)O[C@@H]1CO[C@H]2O[C@H]3[C@@H](C(C=O)=C[C@H](O)[C@@H]4C5=C(C(C)C)CC[C@]5(C)CC[C@@]34C)[C@@]2(O)C1=O | – | 0.594 | – | 0.368 | – | 1.02 | – | 1.12 | – | 0.596 | – | 0.598 | – | 1.28 |
| CN(C)CCNc1ccc([N+](=O)[O-])c2nc3ccccc3c(N)c12 | – | 8.2 | – | 5.35 | – | > 10 | – | > 10 | – | 3.53 | – | 4.27 | – | 5.4 |
